According to patent US20240059689A1, “PURINE DERIVATIVES AS ANTICANCER AGENTS” (Tango Therapeutics, Inc., priority 2021, published 2024):

Legend:
monoubiquitinated PCNA = test: AlphaLISA assay measuring monoubiquitinated PCNA in MDA-MB-436; format: cell-based; details: Homo sapiens, MDA-MB-436, monoubiquitinated PCNA, read-out: Alpha Lisa IC50
From the text: Table 1 also indicates IC50 values for exemplary compounds in an AlphaLISA assay measuring monoubiquitinated PCNA in a BRCA1 mutant cell line (MDA-MB-436; column 7).

MDA-MB-436 = test: Viability assay, BRCA1 mutant cell line MDA-MB-436; format: cell-based; details: Homo sapiens, MDA-MB-436, viability, BRCA1 mutant MDA-MB-436; read-out: MDA-MB-436 rel IC50
From the text: (§1) Table 1 also indicates IC50 values in a viability assay for a non-isogenic pair of BRCA1 mutant (column 5-MDA-MB-436) and BRCA1 WT (column 6—HCC1954) cell lines. These values indicate the effect of treatment with compound on cell survival.

USP1-UAF1 = USP1-UAF1 (Homo sapiens, UniProt O94782); test: Ubiquitin Rhodamine assay of USP1-UAF1 activity; format: biochemical
Protocol: Certain compounds of the disclosure were assessed for USP1-UAF1 activity in a Ubiquitin Rhodamine assay as described in Biology Example 1.

HCC1954 = test: Viability assay, BRCA1 WT cell line HCC1954; format: cell-based; details: Homo sapiens, HCC1954, viability, read-out: HCC1954 rel IC50
From the text: as §1

Chain of USP1-UAF1 (O94782 whole entry): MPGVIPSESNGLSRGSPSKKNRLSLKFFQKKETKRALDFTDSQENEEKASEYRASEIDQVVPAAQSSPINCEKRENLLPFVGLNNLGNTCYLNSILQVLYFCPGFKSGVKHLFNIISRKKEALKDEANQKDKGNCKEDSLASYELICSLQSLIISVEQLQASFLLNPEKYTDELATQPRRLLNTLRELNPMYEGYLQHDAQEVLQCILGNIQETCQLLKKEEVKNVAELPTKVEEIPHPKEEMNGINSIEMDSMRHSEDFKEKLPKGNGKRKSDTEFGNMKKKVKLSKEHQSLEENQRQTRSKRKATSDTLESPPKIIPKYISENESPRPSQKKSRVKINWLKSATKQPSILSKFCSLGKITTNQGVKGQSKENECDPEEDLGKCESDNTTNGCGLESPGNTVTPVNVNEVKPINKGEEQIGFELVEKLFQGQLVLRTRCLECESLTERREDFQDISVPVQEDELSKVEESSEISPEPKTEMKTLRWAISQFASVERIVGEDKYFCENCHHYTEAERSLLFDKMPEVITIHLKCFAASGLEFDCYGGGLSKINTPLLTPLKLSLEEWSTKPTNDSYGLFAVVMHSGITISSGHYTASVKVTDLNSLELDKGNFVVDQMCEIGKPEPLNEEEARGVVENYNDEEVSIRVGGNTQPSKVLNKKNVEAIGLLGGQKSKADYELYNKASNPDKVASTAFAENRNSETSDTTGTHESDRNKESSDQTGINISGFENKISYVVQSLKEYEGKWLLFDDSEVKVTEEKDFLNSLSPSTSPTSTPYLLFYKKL
Chain of USP1-UAF1 (Q8TAF3 whole entry partner): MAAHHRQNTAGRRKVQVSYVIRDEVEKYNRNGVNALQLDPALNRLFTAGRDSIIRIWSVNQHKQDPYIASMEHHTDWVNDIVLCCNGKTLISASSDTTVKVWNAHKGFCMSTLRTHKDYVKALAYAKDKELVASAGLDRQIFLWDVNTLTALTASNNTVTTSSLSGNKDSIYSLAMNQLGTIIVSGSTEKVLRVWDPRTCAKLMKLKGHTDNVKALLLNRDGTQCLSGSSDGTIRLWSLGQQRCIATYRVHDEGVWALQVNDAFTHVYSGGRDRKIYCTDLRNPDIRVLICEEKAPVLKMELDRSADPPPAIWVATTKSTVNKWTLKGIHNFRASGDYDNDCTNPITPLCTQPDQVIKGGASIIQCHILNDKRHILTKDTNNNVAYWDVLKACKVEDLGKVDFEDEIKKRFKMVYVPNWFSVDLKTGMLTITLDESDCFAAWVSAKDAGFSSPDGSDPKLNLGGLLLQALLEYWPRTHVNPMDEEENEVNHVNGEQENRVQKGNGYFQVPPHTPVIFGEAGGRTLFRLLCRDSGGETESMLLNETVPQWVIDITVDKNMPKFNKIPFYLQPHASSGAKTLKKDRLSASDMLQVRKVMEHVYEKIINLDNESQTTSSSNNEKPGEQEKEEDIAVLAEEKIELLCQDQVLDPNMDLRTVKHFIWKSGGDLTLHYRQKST

Row | IC50 (monoubiquitinated PCNA) [nM] | IC50 (MDA-MB-436) [nM] | IC50 (USP1-UAF1) [nM] | IC50 (HCC1954) [µM] | Structure (SMILES)
1 | 250 to 10000 | 100 to 250 | 100 to 10000 | ≥ 10 | COc1ncnc(C2CC2)c1-c1ncc2c(n1)n(Cc1ccc(-c3nc(C(F)(F)F)oc3C)cc1)c(=N)n2CC(F)(F)F [Example T-104, 2-(4-cyclopropyl-6-methoxy-pyrimidin-5-yl)-9-[[4-[5-methyl-2-(trifluoromethyl)oxazol-4-yl]phenyl]methyl]-7-(2,2,2-trifluoroethyl)purin-8-imine]
2 | < 100 | 100 to 250 | 30 to 100 | 0.25 to 10 | COc1ncnc(C(F)(F)F)c1-c1ncc2c(n1)n(Cc1ccc(-n3nc(C(F)(F)F)cc3OC)cc1)c(=N)n2CC(F)(F)F [Example T-145, 9-[[4-[5-methoxy-3-(trifluoromethyl)pyrazol-1-yl]phenyl]methyl]-2-[4-methoxy-6-(trifluoromethyl)pyrimidin-5-yl]-7-(2,2,2-trifluoroethyl)purin-8-imine]
3 | < 100 | < 100 | 30 to 100 | ≥ 10 | COc1ncnc(C2CC2)c1-c1ncc2c(n1)n(Cc1cc(F)c(-n3nc(C(F)(F)F)cc3OC)c(F)c1)c(=N)n2CC(F)(F)F [Example T-127]
4 | < 100 | < 100 | < 30 | 0.25 to 10 | COc1ncnc(C2CC2)c1-c1ncc2c(n1)n(Cc1ccc(-c3nc(C(F)(F)F)sc3C)cc1)c(=N)n2CC(F)(F)F [Example T-128]
5 | < 100 | 100 to 250 | < 30 | 0.25 to 10 | CC(C)c1ccc(F)cc1-c1ncc2c(n1)n(Cc1ccc(-c3nc(C(F)(F)F)cn3C)cc1)c(=N)n2C [Example B-11, 2-(5-fluoro-2-isopropylphenyl)-7-methyl-9-(4-(1-methyl-4-(trifluoromethyl)-1H-imidazol-2-yl)benzyl)-7,9-dihydro-8H-purin-8-imine]
6 | 250 to 10000 | 250 to 10000 | < 30 | 0.25 to 10 | CC(C)c1ccccc1-c1nc(C2CC2)c2c(n1)n(Cc1ccc(-c3nc(C(F)(F)F)cn3C)cc1)c(=N)n2C [Example A-23, 6-cyclopropyl-2-(2-isopropylphenyl)-7-methyl-9-(4-(1-methyl-4-(trifluoromethyl)-1H-imidazol-2-yl)benzyl)-7,9-dihydro-8H-purin-8-imine]
7 | < 100 | < 100 | < 30 | 0.25 to 10 | Cn1cc(C(F)(F)F)nc1-c1ccc(Cn2c(=N)n(C)c3cnc(-c4ccccc4OC(F)(F)F)nc32)cc1 [Example T-033, 7-methyl-9-[[4-[1-methyl-4-(trifluoromethyl)imidazol-2-yl]phenyl]methyl]-2-[2-(trifluoromethoxy)phenyl]purin-8-imine]
8 | < 100 | < 100 | < 30 | ≥ 10 | Cc1nc(-c2cccc(F)c2C(C)C)nc2c1n(C)c(=N)n2Cc1ccc(-c2nc(Cl)cn2C)cc1 [Example A-28, 9-(4-(4-chloro-1-methyl-1H-imidazol-2-yl)benzyl)-2-(3-fluoro-2-isopropylphenyl)-6,7-dimethyl-7,9-dihydro-8H-purin-8-imine]
9 | < 100 | < 100 | < 30 | ≥ 10 | Cc1cnn(C(C)C)c1-c1ncc2c(n1)n(Cc1ccc(-c3nc(C(F)(F)F)cn3C)cc1)c(=N)n2CC(F)(F)F [Example T-130, 2-(2-isopropyl-4-methyl-pyrazol-3-yl)-9-[[4-[1-methyl-4-(trifluoromethyl)imidazol-2-yl]phenyl]methyl]-7-(2,2,2-trifluoroethyl)purin-8-imine]
10 | 100 to 250 | 250 to 10000 | 30 to 100 | 0.25 to 10 | COc1cc(C(F)(F)F)nn1-c1ccc(Cn2c(=N)n(C)c3cnc(-c4ccccc4C(F)(F)F)nc32)cc1 [Example T-004]
11 | 250 to 10000 | 100 to 250 | 30 to 100 | ≥ 10 | COc1ncnc(OC)c1-c1ncc2c(n1)n(Cc1ccc(-c3nc(C(F)(F)F)cn3C)cc1)c(=N)n2CC(F)(F)F [Example T-110, 2-(4,6-dimethoxypyrimidin-5-yl)-9-[[4-[1-methyl-4-(trifluoromethyl)imidazol-2-yl]phenyl]methyl]-7-(2,2,2-trifluoroethyl)purin-8-imine]
12 | < 100 | < 100 | < 30 | ≥ 10 | CC(C)c1ccccc1-c1ncc2c(n1)n(Cc1ccc(-c3nc(Cl)cn3C)cc1)c(=N)n2C [Example A-6, 9-(4-(4-chloro-1-methyl-1H-imidazol-2-yl)benzyl)-2-(2-isopropylphenyl)-7-methyl-7,9-dihydro-8H-purin-8-imine]
13 | 250 to 10000 | 250 to 10000 | 30 to 100 | 0.25 to 10 | Cn1cc(C(F)(F)F)nc1-c1ccc(Cn2c(=N)n(C)c3cnc(-c4cccc(F)c4OC(F)F)nc32)cc1 [Example T-027, 2-[2-(difluoromethoxy)-3-fluoro-phenyl]-7-methyl-9-[[4-[1-methyl-4-(trifluoromethyl)imidazol-2-yl]phenyl]methyl]purin-8-imine]
14 | 250 to 10000 | 250 to 10000 | 30 to 100 | ≥ 10 | Cn1cc(C(F)(F)F)nc1-c1ccc(Cn2c(=N)n(C)c3cnc(-c4cc(F)ccc4OC(F)F)nc32)cc1 [Example T-039, 2-[2-(difluoromethoxy)-5-fluoro-phenyl]-7-methyl-9-[[4-[1-methyl-4-(trifluoromethyl)imidazol-2-yl]phenyl]methyl]purin-8-imine]
15 | < 100 | < 100 | < 30 | 0.25 to 10 | Cn1cc(C(F)(F)F)nc1-c1ccc(Cn2c(=N)n(C)c3cnc(-c4ccccc4C4CC4)nc32)cc1 [Example T-087, 2-(2-cyclopropylphenyl)-7-methyl-9-[[4-[1-methyl-4-(trifluoromethyl)imidazol-2-yl]phenyl]methyl]purin-8-imine]
16 | < 100 | < 100 | < 30 | ≥ 10 | Cn1cc(C(F)(F)F)nc1-c1ccc(Cn2c(=N)n(C)c3cnc(-c4cccnc4OC(F)F)nc32)cc1 [Example T-082, 2-[2-(difluoromethoxy)-3-pyridyl]-7-methyl-9-[[4-[1-methyl-4-(trifluoromethyl)imidazol-2-yl]phenyl]methyl]purin-8-imine]
17 | < 100 | 100 to 250 | 30 to 100 | ≥ 10 | Cn1cc(C(F)(F)F)nc1-c1ccc(Cn2c(=N)n(C)c3cnc(-c4ccccc4OC(F)F)nc32)cc1 [Example T-021, 2-[2-(difluoromethoxy)phenyl]-7-methyl-9-[[4-[1-methyl-4-(trifluoromethyl)imidazol-2-yl]phenyl]methyl]purin-8-imine]
18 | ≥ 10000 | 250 to 10000 | 100 to 10000 | 0.25 to 10 | CNc1nc(-c2ccccc2C(C)C)nc2c1n(C)c(=N)n2Cc1ccc(-c2nc(C(F)(F)F)cn2C)cc1 [Example A-18, 8-imino-2-(2-isopropylphenyl)-N, 7-dimethyl-9-(4-(1-methyl-4-(trifluoromethyl)-1H-imidazol-2-yl)benzyl)-8,9-dihydro-7H-purin-6-amine]
19 | 250 to 10000 | 250 to 10000 | 30 to 100 | 0.25 to 10 | CC(C)c1ccccc1-c1ncc2c(n1)n(Cc1ccc(-c3nc(C(F)(F)F)c[nH]3)cc1)c(=N)n2C [Example A-5, 2-(2-isopropylphenyl)-7-methyl-9-(4-(4-(trifluoromethyl)-1H-imidazol-2-yl)benzyl)-7,9-dihydro-8H-purin-8-imine]
20 | 100 to 250 | < 100 | < 30 | ≥ 10 | Cn1cc(C(F)(F)F)nc1-c1ccc(Cn2c(=N)n(C)c3cnc(-c4cccnc4OC(F)(F)F)nc32)cc1 [Example T-053, 7-methyl-9-[[4-[I-methyl-4-(trifluoromethyl)imidazol-2-yl]phenyl]methyl]-2-[2-(trifluoromethoxy)-3-pyridyl]purin-8-imine]
21 | < 100 | < 100 | 30 to 100 | ≥ 10 | COc1ncnc(C2CC2)c1-c1ncc2c(n1)n([C@H](C)c1ccc(-c3nc(C(F)(F)F)cn3C)cc1)c(=N)n2CC(F)(F)F [Example T-143, (R)-2-(4-cyclopropyl-6-methoxypyrimidin-5-yl)-9-(1-(4-(1-methyl-4-(trifluoromethyl)-1H-imidazol-2-yl)phenyl)ethyl)-7-(2,2,2-trifluoroethyl)-7,9-dihydro-8H-purin-8-imine]
22 | 100 to 250 | 100 to 250 | 30 to 100 | ≥ 10 | CCn1cc(C(F)(F)F)nc1-c1ccc(Cn2c(=N)n(C)c3cnc(-c4ccccc4C(F)(F)F)nc32)cc1 [Example T-063, 9-(4-(1-ethyl-4-(trifluoromethyl)-1H-imidazol-2-yl)benzyl)-7-methyl-2-(2-(trifluoromethyl)phenyl)-7H-purin-8(9H)-imine]
23 | < 100 | 100 to 250 | 30 to 100 | ≥ 10 | Cn1cc(C(F)(F)F)nc1-c1ccc(Cn2c(=N)n(CC(F)(F)F)c3cnc(-c4c(OCF)ncnc4C4CC4)nc32)cc1 [Example T-147, 2-[4-cyclopropyl-6-(fluoromethoxy)pyrimidin-5-yl]-9-[[4-[1-methyl-4-(trifluoromethyl)imidazol-2-yl]phenyl]methyl]-7-(2,2,2-trifluoroethyl)purin-8-imine]
